Assay results published in US8318805B2, “Modulation of nitric oxide synthases by betaines” (priority 2004, dated 2012).
Where “and” joins values, the source holds several entries; their conditions need not be identical. Equal entries are not always repeated.

Key:
[1] = test system: fresh blood (Thromboelastograph); test: TEG parameters after betaine oral administration in healthy volunteers; type: in vivo, human; settings: evaluated with TEG
total nitric oxide = test: Nitric oxide plasma levels in healthy volunteers after repeated betaine ingestion; type: in vivo, human; parameters: Nitric oxide plasma levels Conc / Nitric oxide plasma levels Conc (×2): unit not given here; settings: for Nitric oxide plasma levels Conc / Nitric oxide plasma levels Conc (×2): individual donors
Experimental: (§1) After obtaining the baseline blood samples (sample a) from fastened normal healthy volunteers (n=10), Betaine was repeatedly administered in daily doses of 6 g. (2×3) for 1 week. After obtaining the 1 week blood sample from fastened volunteers (sample b) Betaine was again administered orally at a dose of 3 g. and a third blood sample drawn after one hour (sample c). […] The blood samples were centrifuged and the separated platelet poor plasma was then aliquoted and frozen at −70° C. for subsequent analysis for nitric oxide (NO), tissue factor pathway inhibitor (TFPI) activity levels and global clotting assays.
(§2) The samples are identified for each donor as number of donor (1, 2, etc) followed by the letter of the sample (a, b, c).

[2] = test system: Tissue Factor Pathway Inhibitor (TFPI); test: TFPI activity plasma levels in healthy volunteers after repeated betaine ingestion; type: in vivo, human; settings: for TFPI ACTIVITY: individual donors
Experimental: as §1, §2

[3] = test system: Tissue Factor Pathway Inhibitor (TFPI); test: TFPI concentration plasma levels in healthy volunteers after repeated betaine ingestion; type: in vivo, human; settings: for TFPI CONCENTRATION: individual donors
Experimental: as §1, §2

[4] = test system: thrombus formation in mesenteric veinules or arterioles; test: Laser-induced thrombosis in rat mesenteric circulation; type: in vivo, Wistar rats
Source text: Male Wistar rats (200-270 gram) were used for the experiments. […] After the medial laparotomy the intestinal loop was placed on the microscope table. Vascular lesions were produced by Argon laser […] This shot causes a well limited lesion of the vascular endothelium (only few cells are destroyed) exposing the thrombogenetic under-layer of the sub-endothelium. The contact of blood with this surface triggers the adherence of platelets via glycoproteins Ib & IIb IIIa. This adherence of platelets is followed by their activation: they form pseudopods and secrete the content of their granules. As a consequence thrombus formation occurs within few seconds. This platelet rich thrombus rapidly enlarges under influence of blood flow, embolises (i.e. is disrupted and carried by the flow from the thrombogenic area) before a new thrombus being formed again on the injured surface. […] Up to four shots can be fired if no emboli (platelet thrombus) are readily appearing. The number of successive laser beams and emboli formed are then recorded. In the presence of an antithrombotic compound a higher number of laser shots are necessary to induce thrombus formation. Similarly, a smaller number of emboli (platelet thrombi) are formed as compared with controls and the duration of the embolisation is also shorter. […] Similarly, a higher number of emboli (platelet thrombi) are formed as compared with controls and the duration of the embolisation is also longer. Betaine is orally administrated to animals at 50 mg/kg, 60 minutes before laser thrombosis.

[5] = test system: blood (rate of initial fibrin formation); test: TEG at each blood draw during repeated betaine ingestion; type: in vivo, human; settings: compared to the baseline values; 6 g daily for 1 week, then 3 g
Experimental: as §1

nitric oxide = test: Nitric oxide production in healthy volunteers after single betaine ingestion (plasma, Griess reaction); type: in vivo, human; parameters: Conc. (nitric oxide) / Conc. (2) (nitric oxide): unit not given here
Experimental: Betaine is administrated at 75 mg/kg single oral dose at T0 to fastened healthy volunteers just after the basal blood sample. At T0 and T0+60 mn fresh blood samples are centrifuged to obtain plasma.
The samples are then tested for nitric oxide with the Griess reaction.

[6] = test system: photochemically-induced brain ischemia; test: Photochemically-induced (rose Bengal) focal cerebral ischemia on rats; type: in vivo, rat; settings: for Red Ischemic Area, Excluding Blue Evan Penumbra / Weight of ischemic area: mean, n = 10
Source text: The aim of this study was to evaluate the activity of Betaine on thrombus formation in a rat model of photochemically-induced brain ischemia. The method (11) is based on local free radical release exerted by filtered light acting on rose Bengal previously injected in animals. Free radicals are known to induce endothelial damage, followed by platelet aggregation, thrombus formation and vascular occlusion. Briefly, an optic fiber in close contact shone denuded intact skulls (diameter of the illuminated circle 5.4 mm, luminance at the entrance of optic fiber was 5.6×10^6 Ix). After turning on the lamp, an infusion through the caudal vein of a 5 mg/mL (w/v) solution of rose Bengal in saline was started. Two mL of the solution were administered at a flow rate of 0.1 mL/min. After 20 min, at the end of the infusion, the lamp was turned off. [table] Evan's Blue solution (2% w/v) in saline was intravenously injected (1 mL/rat), 18-20 h after the ischemia induction in order to reveal the BBB breakdown. The rats were sacrificed 20 min after Evan's Blue injections and their brains removed. The infarcted area was visually verified, photographed by digital camera and then weighed.

[7] = test system: Pulmonary Arterial Hypertension; test: Betaine added to Bosentan in patients with Pulmonary Arterial Hypertension (PAP, heart rate, 6MWT); type: in vivo, human; settings: after two weeks of anhydrous betaine 6 g/day bid added to Bosentan 125 mg bid
Experimental: Nine patients suffering from Pulmonary Arterial Hypertension and taking 125 mg Bosentan bid were randomly assigned to placebo (lactose monohydrate) 6 g/day bid (4 patients) or to anhydrous betaine 6 g/day bid (5 patients) during two weeks. They were assessed for haemodynamic variables and for 6 minutes walking test at inclusion and after the two weeks of medication with placebo or betaine. Pulmonary Artery Pressure (PAP) and Heart rate were non-invasively estimated by Doppler echocardiography method. 6MWT was performed on a treadmill.

[8] = test system: fresh blood (Thromboelastograph); test: TEG parameters after betaine oral administration in healthy volunteers; type: in vivo, human; settings: for K / MA / R / α Angle: T0 + 60 mn after 75 mg/kg single oral dose
Experimental: Betaine is administrated at 75 mg/kg single oral dose at T0 to fastened healthy volunteers just after the basal blood sample. At T0 and T0+60 mn the fresh blood samples are immediately evaluated in the Thromboelastograph (TEG®—Haemoscope Corp.—Illinois).
R parameter corresponds to […] initial fibrin formation, and is functionally related to plasma clotting factors and clot formation.

[9] = betaine oral administration, healthy volunteers (n=10)
[10] = sample b: fasted, after 6 g daily (2×3) for 1 week
[11] = sample c: one hour after a further 3 g oral dose following 1 week of 6 g daily
[12] = plasma, Post = T0+60 mn after 75 mg/kg single oral dose, individual volunteers
[13] = Betaine 10 mg/kg sc 1 h before ischemia induction
[14] = Betaine 10 mg/kg sc at the end of ischemia induction, (*) P<0,05
[15] = healthy volunteers, 60 minutes after oral administration
[16] = mean T0 + 60 mn versus mean basal value

C[N+](C)(C)CC(=O)O [Betaine, glycine betaine]
R prolongation compared with Lovenox in post orthopaedic surgery patients [1]: as potent as Lovenox® anticoagulation | Nitric oxide levels (total nitric oxide; [9]): increased | Nitric oxide plasma levels Conc (total nitric oxide; [10]): 29.11 and 28.89 and 9.11 and 26.28 and 20.2 and 22.59 and 13.24 and 21.5 and 24.11 and 14.11 | Nitric oxide plasma levels Conc (×2) (total nitric oxide; [10]): 58.217 and 57.783 and 18.217 and 52.565 and 40.391 and 45.174 and 26.478 and 43 and 48.217 and 28.217 | Nitric oxide plasma levels Conc (total nitric oxide; [11]): 14.54 and 41.07 and 39.96 and 27.8 and 26.72 and 22.8 and 25.85 and 11.93 and 31.28 and 27.15 | Nitric oxide plasma levels Conc (×2) (total nitric oxide; [11]): 29.087 and 82.13 and 79.957 and 55.609 and 53.435 and 45.609 and 51.696 and 23.87 and 62.565 and 54.304 | TFPI activity plasma levels [2, 9]: increased | TFPI ACTIVITY [2, 10]: 3.30 U/ml and 181.61 ng/ml and 2.74 U/ml and 150.83 ng/ml and 2.66 U/ml and 146.34 ng/ml and 2.30 U/ml and 126.36 ng/ml and 2.17 U/ml and 119.46 ng/ml and 4.66 U/ml and 256.55 ng/ml and 3.39 U/ml and 186.37 ng/ml and 2.99 U/ml and 164.44 ng/ml and 3.52 U/ml and 193.76 ng/ml and 4.43 U/ml and 243.59 ng/ml | TFPI ACTIVITY [2, 11]: 3.60 U/ml and 197.99 ng/ml and 2.19 U/ml and 120.49 ng/ml and 1.71 U/ml and 94.20 ng/ml and 2.74 U/ml and 150.83 ng/ml and 2.98 U/ml and 163.73 ng/ml and 4.53 U/ml and 248.91 ng/ml and 3.65 U/ml and 200.57 ng/ml and 3.23 U/ml and 177.73 ng/ml and 3.45 U/ml and 189.62 ng/ml and 4.03 U/ml and 221.52 ng/ml | TFPI concentration plasma levels [3, 9]: increased | TFPI CONCENTRATION [3, 10]: 59.45 ng/mL and 66.23 ng/mL and 84.35 ng/mL and 47.14 ng/mL and 64.57 ng/mL and 76.40 ng/mL and 93.34 ng/mL and 47.28 ng/mL and 70.31 ng/mL and 89.81 ng/mL | TFPI CONCENTRATION [3, 11]: 86.98 ng/mL and 70.38 ng/mL and 76.12 ng/mL and 70.52 ng/mL and 82.62 ng/mL and 89.19 ng/mL and 87.74 ng/mL and 58.62 ng/mL and 63.25 ng/mL and 83.38 ng/mL | Number of laser beams, number of emboli and duration of embolisation relative to saline control values ([4]; Betaine co-administration with selective COX 2 inhibitors): normalise | Protection from selective COX 2 inhibitors thrombogenicity ([4]; rats, Betaine co-administered orally at 50 mg/kg): clearly protects animals from selective COX 2 inhibitors thrombogenicity | TEG reaction time, i.e. rate of initial fibrin formation [5]: marked prolongation | Nitric oxide levels (nitric oxide; oral administration, all tested volunteers): markedly increased | Conc. (2) (nitric oxide) (nitric oxide; [12]): 41.81 and 24.14 and 65.53 and 114.21 and 70.19 and 72.51 | Conc. (nitric oxide) (nitric oxide; [12]): 20.91 and 12.07 and 32.77 and 57.42 and 35.09 and 36.26 | Red Ischemic Area, Excluding Blue Evan Penumbra [6, 13]: 0.335 cm^2 | Weight of ischemic area [6, 13]: 36 mg | Red Ischemic Area, Excluding Blue Evan Penumbra [6, 14]: 0.28 cm^2 | Weight of ischemic area [6, 14]: 25 mg | Efficacy in the stroke model compared with Aspirin ([6]; rat, Betaine 10 mg/kg sc): better efficacy than Aspirin | Crossing of encephalic barrier ([6]; rat, after being present in blood stream): ability to cross encephalic barrier | Heart rate 2 ([7]; individual patients): 84 beats/minute and 67 beats/minute and 74 beats/minute and 69 beats/minute and 72 beats/minute | Week 2 ECO 2 PAP ([7]; individual patients): 71 mmHg and 60 mmHg and 80 mmHg and 65 mmHg and 58 mmHg | 6MWT 2 ([7]; mean of 5 patients): 413 m | Heart rate 2 ([7]; mean of 5 patients): 73.2 beats/minute | Week 2 ECO 2 PAP ([7]; mean of 5 patients): 66.8 mmHg | 6MWT 2 ([7]; treadmill, individual patients): 380 m and 504 m and 360 m and 411 m and 410 m | K ([8]; individual volunteers): 2.5 mn and 1.8 mn and 2.0 mn and 1.3 mn (2×) and 2.7 mn | MA ([8]; individual volunteers): 52.6 mm and 65.0 mm and 56.8 mm and 65.8 mm and 61.9 mm and 70.1 mm | R ([8]; individual volunteers): 5.8 mn and 7.3 mn and 7.4 mn and 4.8 mn and 8.4 mn and 6.3 mn | α Angle ([8]; individual volunteers): 57.5 ° and 65.5 ° and 64.2 ° and 71.9 ° and 66.9 ° and 70.4 ° | K ([8]; mean of 6 volunteers): 1.9 mn | MA ([8]; mean of 6 volunteers): 62.0 mm | R ([8]; mean of 6 volunteers): 6.8 mn | α Angle ([8]; mean of 6 volunteers): 66.1 ° | Blood coagulation (R parameter) [8, 15]: significantly prolonged | Other TEG parameters [8, 15]: remained stable | Δ K [8, 16]: −8% | Δ MA [8, 16]: +3% | Δ R [8, 16]: +45% | Δ α Angle [8, 16]: +1%
